Laboratory results from ChEMBL document CHEMBL1201862, “PubChem BioAssay data set” (2004).
Activity calls are given as the source filed them.

Assays:
[1] = HEK-293T viability loss, compound-treated – cell-based, uHTS hits, cytotoxicity control for B/T-cell NF-kB inhibitor project, dose response (AID 489019); format: functional;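 further: IC50 reflects cytotoxicity as loss of cell viability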
CAAX prenyl protease 1 = CAAX prenyl protease 1 (Saccharomyces cerevisiae S288c, UniProt P47154); assay: yeast CAAX protease Ste24 inhibition – biochemical, S. cerevisiae, plate reader, cherry-pick, dose response (AID 488815)
CAAX prenyl protease 1, sequence (P47154 whole entry): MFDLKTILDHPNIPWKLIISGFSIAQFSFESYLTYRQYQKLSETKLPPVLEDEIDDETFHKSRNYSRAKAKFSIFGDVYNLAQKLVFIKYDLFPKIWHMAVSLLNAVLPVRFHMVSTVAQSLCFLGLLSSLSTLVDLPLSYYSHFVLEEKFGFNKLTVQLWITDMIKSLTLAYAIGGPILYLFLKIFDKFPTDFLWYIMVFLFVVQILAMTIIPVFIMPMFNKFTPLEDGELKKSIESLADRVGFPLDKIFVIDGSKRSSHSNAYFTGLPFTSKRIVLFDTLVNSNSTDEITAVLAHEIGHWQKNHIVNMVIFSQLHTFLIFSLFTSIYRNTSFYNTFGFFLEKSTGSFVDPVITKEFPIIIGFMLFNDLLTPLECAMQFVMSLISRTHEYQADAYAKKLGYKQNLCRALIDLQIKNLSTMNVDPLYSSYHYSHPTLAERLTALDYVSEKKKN

[2] = NIH3T3 cell viability loss – ATP luminescence, mouse fibroblasts, counter-screen, dose response (AID 2010); format: functional, cell-based;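 further: cells exposed to compound for about 90 hours before reading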
Trypsin = Trypsin (Sus scrofa, UniProt P00761); assay: trypsin protease activity blockade – biochemical, quenched peptide fluorescence, cherry-pick, selectivity assay for Rce1 protease inhibitor project, dose response (AID 488789)
Trypsin, sequence (P00761 whole entry): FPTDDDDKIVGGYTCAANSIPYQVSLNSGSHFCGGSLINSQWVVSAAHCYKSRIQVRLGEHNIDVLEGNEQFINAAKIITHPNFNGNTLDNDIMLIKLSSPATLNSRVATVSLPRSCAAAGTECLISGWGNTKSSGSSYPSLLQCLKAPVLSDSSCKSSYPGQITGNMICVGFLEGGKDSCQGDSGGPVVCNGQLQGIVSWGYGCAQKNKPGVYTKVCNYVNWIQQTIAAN

CAAX prenyl protease 2 [3] = molecular target: T1, CAAX prenyl protease 2 (Homo sapiens, UniProt Q9Y256); assay: inhibition of Ras-converting CAAX protease Rce1 – biochemical, yeast membranes, quenched-peptide fluorescence, cherry-pick, dose response (AID 588849)
T1 sequence (Q9Y256 whole entry): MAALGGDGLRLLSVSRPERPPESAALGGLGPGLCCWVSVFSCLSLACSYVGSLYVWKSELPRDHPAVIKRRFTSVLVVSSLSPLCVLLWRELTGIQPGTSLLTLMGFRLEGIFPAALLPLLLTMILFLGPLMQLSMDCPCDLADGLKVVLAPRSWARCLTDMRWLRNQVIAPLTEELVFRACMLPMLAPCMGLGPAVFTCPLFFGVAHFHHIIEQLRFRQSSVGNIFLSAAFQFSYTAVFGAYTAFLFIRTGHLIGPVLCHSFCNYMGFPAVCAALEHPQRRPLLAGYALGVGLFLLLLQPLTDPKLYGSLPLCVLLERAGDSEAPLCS

Jurkat = assay: blockers of NF-kB activation in T cells – Jurkat, luciferase reporter, luminescence, B- and T-cell, dose response (AID 489004); format: functional, cell-based; settings: Homo sapiens;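 further: NF-kB luciferase reporter Jurkat cells stimulated with PMA plus ionomycin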
CAAX prenyl protease 2 [4] = molecular target: T2, CAAX prenyl protease 2 (Saccharomyces cerevisiae S288c, UniProt Q03530); format: biochemical
T2 sequence (Q03530 whole entry): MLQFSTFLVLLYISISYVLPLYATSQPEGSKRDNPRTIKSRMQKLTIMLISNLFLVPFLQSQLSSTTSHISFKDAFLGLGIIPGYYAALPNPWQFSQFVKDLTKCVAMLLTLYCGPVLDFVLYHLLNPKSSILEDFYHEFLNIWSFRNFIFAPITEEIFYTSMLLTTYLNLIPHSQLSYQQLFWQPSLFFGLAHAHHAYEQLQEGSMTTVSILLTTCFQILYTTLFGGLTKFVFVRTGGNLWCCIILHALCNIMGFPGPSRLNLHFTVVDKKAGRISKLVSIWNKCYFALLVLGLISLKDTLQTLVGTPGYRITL

INS1 = assay: INS-1E survival protection against cytokine death – cell-based, luminescence, retest, dose response (AID 449756); format: functional; settings: Rattus norvegicus;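 further: cell death triggered by IL-1 beta plus TNF-alpha plus IFN-gamma mixture; protective hits raise ATP signal compared with cytokine alone wells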
[5] = molecular target: T3, Short transient receptor potential channel 4 (Mus musculus, UniProt Q9QUQ5); assay: block of DAMGO-driven TRPC4 calcium entry – cell-based, HEK293 TRPC4/mu-opioid, Fluo-4 calcium, dose response (AID 434942); format: functional;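 further: potency of inhibitors blocking the TRPC4 calcium response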
T3 sequence (Q9QUQ5 whole entry): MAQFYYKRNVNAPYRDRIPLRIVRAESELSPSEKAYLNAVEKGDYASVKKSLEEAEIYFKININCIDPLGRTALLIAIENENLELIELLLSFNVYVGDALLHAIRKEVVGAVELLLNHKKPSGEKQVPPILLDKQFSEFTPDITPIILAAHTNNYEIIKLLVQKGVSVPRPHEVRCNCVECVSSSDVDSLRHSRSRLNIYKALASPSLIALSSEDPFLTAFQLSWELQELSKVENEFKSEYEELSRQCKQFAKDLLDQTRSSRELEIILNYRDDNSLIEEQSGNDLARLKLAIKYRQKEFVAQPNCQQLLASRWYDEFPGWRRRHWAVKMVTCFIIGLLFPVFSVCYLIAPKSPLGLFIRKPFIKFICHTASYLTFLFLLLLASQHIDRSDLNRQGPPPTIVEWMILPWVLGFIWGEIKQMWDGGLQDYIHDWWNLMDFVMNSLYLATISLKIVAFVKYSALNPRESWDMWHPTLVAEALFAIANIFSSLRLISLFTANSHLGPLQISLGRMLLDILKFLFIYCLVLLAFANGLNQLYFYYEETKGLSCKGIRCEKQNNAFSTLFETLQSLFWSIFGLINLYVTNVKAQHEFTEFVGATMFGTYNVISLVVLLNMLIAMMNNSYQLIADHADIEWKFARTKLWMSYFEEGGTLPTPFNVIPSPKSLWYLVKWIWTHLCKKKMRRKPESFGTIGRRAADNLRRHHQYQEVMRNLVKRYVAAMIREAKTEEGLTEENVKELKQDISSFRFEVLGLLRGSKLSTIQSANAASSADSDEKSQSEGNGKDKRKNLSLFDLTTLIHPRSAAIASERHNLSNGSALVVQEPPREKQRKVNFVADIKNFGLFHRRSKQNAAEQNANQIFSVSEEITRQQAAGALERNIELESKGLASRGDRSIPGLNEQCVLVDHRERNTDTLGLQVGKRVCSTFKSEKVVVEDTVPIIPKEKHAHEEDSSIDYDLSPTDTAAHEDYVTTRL

[6] = Trypanosoma cruzi growth suppression in host cells – NIH3T3 host cells, beta-gal luminescence, confirmation (AID 2044); format: functional, cell-based;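 further: intracellular parasites grown in NIH/3T3 mouse fibroblasts as host cells; luminescent beta-galactosidase reporter signal from transgenic T. cruzi replicating inside host cells; inhibitors lower the luminescence signal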
[7] = A549 cell cytotoxicity, dose response, cytotoxicity control, plate reader, cherry-pick, antagonist series (AID 743412); format: functional, cell-based
[8] = toxicity toward HepG2 liver cells – cell-based, plate reader, cherry-pick, antagonist series, cytotoxicity control, dose response (AID 743416); format: functional
[9] = viability loss in HEK293 cells – cell-based, plate reader, cherry-picked samples, cytotoxicity control, dose response (AID 743446); format: functional
[10] = Luminescence Cell-Based Dose Confirmation HTS to Identify Inhibitors of Platelet Dense Granule Release. [Related pubchem assays: 1663 (Primary HTS), 1678 (Summary of Project)]; format: functional
[11] = reduction of Shn3 3'UTR-driven luciferase in osteoblasts – cell-based, Clone20 osteoblasts, firefly luciferase, cherry-picked, dose response (AID 624132); format: functional;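 further: firefly luciferase luminescence from reporter carrying the Shn3 3'UTR in osteoblasts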
[12] = blockade of melanocortin 4 receptor signaling – cell-based, plate reader, cherry pick, counter-screen for LGR2 antagonist project, dose response (AID 743444); format: functional;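 further: transfected HEK 293 cells stimulated with alpha-MSH peptide; potency of inhibitors of the alpha-MSH evoked signal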
[13] = loss of viability in HepG2 cells – cell-based, CellTiter-Glo, cherry-picked, cytotoxicity control for Shn3 inhibitor project, dose response (AID 624134); format: functional
[14] = blockers of bursicon-stimulated LGR2 cAMP reporter – cell-based, HEK293, CRE-luciferase reporter, cherry pick, set 2, dose response (AID 743343); format: functional;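 further: transfected cells were stimulated with diluted bursicon conditioned medium after compound addition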
[15] = molecular target: Luciferin 4-monooxygenase (Photinus pyralis, UniProt P08659); assay: inhibition of purified Photinus pyralis luciferase – biochemical, luminescence, dose response (AID 1891)
Luciferin 4-monooxygenase, sequence (P08659 whole entry): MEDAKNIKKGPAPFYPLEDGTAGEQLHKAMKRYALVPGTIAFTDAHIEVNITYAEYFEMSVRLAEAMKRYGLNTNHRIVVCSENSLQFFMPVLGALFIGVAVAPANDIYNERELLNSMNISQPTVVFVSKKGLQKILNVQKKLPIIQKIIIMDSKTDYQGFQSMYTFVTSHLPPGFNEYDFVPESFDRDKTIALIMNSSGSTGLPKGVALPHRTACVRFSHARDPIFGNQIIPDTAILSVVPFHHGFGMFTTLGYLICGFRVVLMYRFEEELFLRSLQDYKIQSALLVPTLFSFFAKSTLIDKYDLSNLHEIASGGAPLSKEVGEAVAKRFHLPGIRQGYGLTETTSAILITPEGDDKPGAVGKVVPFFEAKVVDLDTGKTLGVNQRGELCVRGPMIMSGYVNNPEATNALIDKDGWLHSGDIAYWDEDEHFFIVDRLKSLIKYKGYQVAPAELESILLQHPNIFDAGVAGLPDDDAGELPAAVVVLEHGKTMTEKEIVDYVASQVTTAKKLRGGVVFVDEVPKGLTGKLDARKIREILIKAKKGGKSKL

[16] = non-specific 3'UTR reporter inhibition in Clone20-Shn3RL – cell-based, Renilla luciferase, cherry-picked, counter-screen for Shn3 inhibitor project, dose response (AID 624133); format: functional
[17] = molecular target: Heat shock protein HSP 90-alpha (Homo sapiens, UniProt P07900); format: functional, organism-based

CCCCC[n+]1cccc2c3ccccc3ccc21
IC50 [1]: > 80 µM (inactive)
AC50 (CAAX prenyl protease 1): 4.72 µM (active)
EC50 [2]: > 30 µM (not active)
AC50 (Trypsin): 8.59 µM (active)
AC50 (CAAX prenyl protease 2 [3]): 7.74 µM (active)
IC50 (Jurkat): > 80 µM (inactive)
AC50 (CAAX prenyl protease 2 [4]): > 100 µM (inactive)
AC50 (INS1): 4.56 µM (active)
EC50 [5]: 3.35 µM (active)
EC50 [6]: 0.466 µM (active)

COc1ccc(-c2nc(-c3ccccn3)no2)cc1
AC50 [7]: 3.8 µM (active)
IC50 [1]: > 80 µM (inactive)
AC50 [8]: 3.7 µM (active)
AC50 [9]: 3.26 µM (active)
EC50 [10]: 2.15 µM (active)
AC50 [11]: 1.92 µM (active)
AC50 [12]: 0.504 µM (active)
AC50 [13]: 7.01 µM (active)
AC50 [14]: 0.415 µM (active)
EC50 [15]: 0.548 µM (active)
IC50 (Jurkat): 0.88 µM (active)
AC50 [16]: 26.9 µM (active)
AC50 (INS1): 3.81 µM (active)
AC50 [17]: 20.4 µM (active)

C[n+]1ccc(-c2ccccc2)c2ccccc21
AC50 (CAAX prenyl protease 1): 2.18 µM (active)
AC50 (Trypsin): 23.1 µM (active)
AC50 (CAAX prenyl protease 2 [3]): 5.8 µM (active)
AC50 (CAAX prenyl protease 2 [4]): 54.7 µM (active)
